{
  "source": "patent US20030040531A1",
  "about": "“Remedies for reperfusion injury containing integrin alphanubeta 3 antagonist” (priority 2000, published 2003)",
  "key": {"integrin αvβ3": {"target": "integrin αvβ3 (Homo sapiens, UniProt P05106+P06756)", "sequence (P06756 31-1048)": "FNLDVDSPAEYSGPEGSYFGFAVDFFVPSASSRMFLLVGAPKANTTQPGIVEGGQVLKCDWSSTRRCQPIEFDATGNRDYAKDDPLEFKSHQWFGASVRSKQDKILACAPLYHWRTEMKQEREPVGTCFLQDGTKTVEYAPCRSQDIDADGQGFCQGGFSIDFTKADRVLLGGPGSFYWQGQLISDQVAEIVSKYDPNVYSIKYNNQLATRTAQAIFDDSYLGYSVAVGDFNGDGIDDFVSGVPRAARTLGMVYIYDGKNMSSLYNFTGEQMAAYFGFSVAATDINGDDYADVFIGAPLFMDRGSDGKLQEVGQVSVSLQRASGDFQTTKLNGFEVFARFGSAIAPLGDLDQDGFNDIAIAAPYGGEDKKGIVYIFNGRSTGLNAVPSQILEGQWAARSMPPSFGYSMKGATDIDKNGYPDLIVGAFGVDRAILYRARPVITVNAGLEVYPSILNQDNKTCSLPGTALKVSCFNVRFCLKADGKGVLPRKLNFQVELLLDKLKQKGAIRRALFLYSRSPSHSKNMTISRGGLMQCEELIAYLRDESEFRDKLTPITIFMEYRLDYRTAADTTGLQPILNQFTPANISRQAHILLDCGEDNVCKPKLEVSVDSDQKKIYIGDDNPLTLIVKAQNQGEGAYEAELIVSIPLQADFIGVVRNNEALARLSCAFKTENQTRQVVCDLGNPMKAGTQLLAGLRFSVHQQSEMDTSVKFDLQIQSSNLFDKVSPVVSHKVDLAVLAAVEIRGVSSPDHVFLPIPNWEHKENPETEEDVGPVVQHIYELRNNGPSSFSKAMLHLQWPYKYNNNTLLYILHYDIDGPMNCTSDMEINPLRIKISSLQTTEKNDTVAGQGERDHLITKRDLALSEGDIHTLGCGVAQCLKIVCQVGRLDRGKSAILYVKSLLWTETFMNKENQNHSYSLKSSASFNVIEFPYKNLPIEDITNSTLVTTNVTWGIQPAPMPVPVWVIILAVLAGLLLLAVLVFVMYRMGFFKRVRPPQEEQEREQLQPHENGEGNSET", "sequence (P05106 27-788)": "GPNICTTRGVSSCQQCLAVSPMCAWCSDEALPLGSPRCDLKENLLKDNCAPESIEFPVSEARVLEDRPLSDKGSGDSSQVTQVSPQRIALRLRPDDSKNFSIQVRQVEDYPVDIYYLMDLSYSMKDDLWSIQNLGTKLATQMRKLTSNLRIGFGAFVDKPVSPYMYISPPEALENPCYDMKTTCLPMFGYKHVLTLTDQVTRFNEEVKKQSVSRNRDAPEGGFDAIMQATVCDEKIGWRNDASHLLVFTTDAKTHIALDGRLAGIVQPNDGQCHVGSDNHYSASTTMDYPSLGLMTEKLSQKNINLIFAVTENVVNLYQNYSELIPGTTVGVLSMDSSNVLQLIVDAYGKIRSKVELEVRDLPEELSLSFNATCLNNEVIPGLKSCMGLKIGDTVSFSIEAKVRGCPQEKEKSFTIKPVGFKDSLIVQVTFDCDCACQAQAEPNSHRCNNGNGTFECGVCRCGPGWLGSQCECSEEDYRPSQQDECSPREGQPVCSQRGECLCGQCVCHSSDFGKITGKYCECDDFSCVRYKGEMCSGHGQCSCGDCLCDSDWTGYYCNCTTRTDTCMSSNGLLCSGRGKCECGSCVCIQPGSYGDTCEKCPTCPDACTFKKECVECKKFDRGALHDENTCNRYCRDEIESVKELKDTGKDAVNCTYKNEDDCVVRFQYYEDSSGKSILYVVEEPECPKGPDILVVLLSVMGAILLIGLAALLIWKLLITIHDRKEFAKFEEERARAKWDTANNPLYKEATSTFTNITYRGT", "test": "integrin αvβ3 binding assay (Pharmacological Example 1 in WO 99/38849)", "from_the_text": "Whether or not a compound has integrin αvβ3 antagonistic activity may be determined by assaying the antagonistic action by integrin αvβ3 binding assay as described, for example, in Pharmacological Test Example 1 in WO 99/38849."}, "[1]": {"test_system": "human vascular smooth muscle cells", "test": "adhesion of human vascular smooth muscle cells to immobilized human vitronectin", "format": "cell-based", "conditions": "read-out: concentration (IC50) necessary for inhibition of adhesion to vitronectin", "method": "(§1) The adhesion of vascular smooth muscle cells to immobilized human vitronectin was measured in accordance with the method of Liaw et al. (L. Liaw et al., Circ. Res., 74, 214 (1994)). A Dulbecco's phosphate buffer (Dulbecco's PBS(−)) solution of human serum-derived vitronectin adjusted to a concentration of 4 μg/ml was first added to wells (50 μl/well) of a microplate (Maxisorp), and a reaction for immobilization was allowed to proceed at 4° C. overnight. After washing twice with 150 μl of Dulbecco's PBS (−), Dulbecco's PBS (−) containing 10 mg/ml of bovine serum albumin was added, followed by blocking at 37° C. for one hr. The microplate was then washed twice with 150 μl of Dulbecco's PBS (−) to prepare an assay plate.\nSeparately, human vascular smooth muscle cells cultivated at 37° C. under 5% carbon dioxide in a medium for vascular smooth muscle cells were separated using a Dulbecco's PBS (−) containing trypsin-EDTA, were washed with Dulbecco's PBS (−), and were then suspended in a Dulbecco's modified Eagle's basal medium to a concentration of 2×10^5/ml.\n(§2) Next, 50 μl of a Dulbecco's modified Eagle's basal medium containing 20 mg/ml of bovine serum albumin with a medicament added thereto was added to the wells of the human vitronectin-coated assay microplate, followed by pre-cultivation under 5% carbon dioxide at 37° C. for 10 min. Thereafter, 50 μl of the Dulbecco's modified Eagle's basal medium with human vascular smooth muscle cells suspended therein was added thereto, and the plate was thoroughly stirred. A reaction was allowed to proceed under 5% carbon dioxide at 37° C. for 90 min. The reaction solution containing non-adherent cells was then removed, followed by washing three times with Dulbecco's PBS (−). For the adhered cells, 100 μl of Dulbecco's PBS (−) containing 4% paraformaldehyde was added, and immobilization was allowed to proceed at room temperature for 10 min. Next, 100 μl of a Dulbecco's PBS (−) containing 0.5% Toluidine Blue and 4% paraformaldehyde was added, and staining was allowed to proceed at room temperature for 5 min, followed by thorough washing with distilled water. The inside of the wells was then air-dried, and 1% aqueous sodium dodecylsulfate solution was then added to perform cytolysis. The absorbance of the microplate thus obtained was measured at 595 nm. […] The inhibition was calculated by the following equation. IC50 was determined from a primary regression line of the logarithm of each concentration of the test compound and the logarithm of (100−inhibition)/inhibition. [formula]"}, "[2]": {"test_system": "dog vascular smooth muscle cells", "test": "adhesion of dog vascular smooth muscle cells to bovine vitronectin", "format": "cell-based", "conditions": "Canis lupus familiaris, read-out: concentration (IC50) necessary for inhibition of adhesion to vitronectin", "method": "as §1, §2\nRat vascular smooth muscle cells were cultivated in a medium composed of a mixture of equal amounts of 15% fetal calf serum-containing 199 medium and RPMI 1640 medium. Separately, hamster and dog vascular smooth muscle cells were cultivated in a 10% fetal calf serum-containing Dulbecco's modified Eagle's basal medium. These cultivated cells were then suspended in a Dulbecco's modified Eagle's basal medium to concentrations of 3×10^5 cells/ml (rat), 3×10^5 cells/ml (hamster), and 4×10^5 cells /ml (dog), respectively. Rat vitronectin was used in the adhesion system of rats and hamsters, while bovine vitronectin was used in the adhesion system of dogs."}, "platelet aggregation [3]": {"test_system": "platelet aggregation", "test": "inhibition of platelet aggregation, human", "format": "cell-based", "conditions": "read-out: concentration (IC50) necessary for inhibition of platelet aggregation"}, "platelet aggregation [4]": {"test_system": "platelet aggregation", "test": "inhibition of platelet aggregation, hamster", "format": "cell-based", "conditions": "Mesocricetus auratus, read-out: concentration (IC50) necessary for inhibition of platelet aggregation", "method": "The platelets aggregation was measured by the Born's method (G. V. R. Born, Nature 194, 927 (1962)). Blood was collected through an injector containing a 3.8% sodium citrate solution from the aorta abdominalis (final concentration: 0.38%). Centrifugation was carried out at 900 rpm (about 80× g) for 10 min to collect platelet-rich plasma, and centrifugation was further carried out at 3,000 rpm (about 880× g) for 10 min to collect platelet-poor plasma, followed by the measurement of aggregation with an aggregometer. In this case, ADP (final concentration: 5 μM) was used as an aggregation inducer."}, "[5]": {"test_system": "hamster acute ischemia-reperfusion model", "test": "hamster acute ischemia-reperfusion model", "format": "in vivo", "conditions": "for reduction of myocardial infarct size (IS/AR): sodium salt mixed with arginine; for myocardial infarct size (IS/AR): average±SE, n=5, solvent administration group 49.3±7.1%", "method": "A polyethylene tube was inserted into the carotid artery and the survical vein of Syrian male hamsters (10 to 13 weeks old) under pentobarbital anesthesia (60 mg/kg, i.p.). An electrocardiogram (I or II leading) was measured through a bioelectricity amplifier by leading from electrodes which had pierced the limbs. A polyethylene tube was inserted into the trachea, and artificial respiration was carried out with an artificial respirator (amount of ventilation: 10 ml/kg/stroke, number of times of ventilation: 70 strokes/min). The blood pressure was measured through a blood pressure amplifier, and the heart rate was measured with a heart rate unit using blood pressure as a trigger. The animals underwent thoracotomy, and the coronary, together with the myocardium, was then occluded using a suture with a needle. Ischemia for 90 min was followed by reperfusion for 2 hr to quantitatively determine myocardial infarct size.\nA sodium salt of the compound represented by formula (IV) was mixed with a 2-fold equivalent of arginine, and the mixture was dissolved in a 5% glucose solution. The dose volume was 2 ml/kg+2 ml/kg/h (bolus +infusion). For a solvent administration group, a 0.64 mg/ml arginine/5% glucose solution was used. The medicament was continuously administered through an infusion pump for the period starting with one min before ischemia and ending with the completion of the experiment. After reperfusion for 2 hr, the animals were slaughtered by intraveneous injection of 1,000 U/kg of heparin and an excessive amount of pentobarbital, and the heart was then removed. After perfusion with a Ringer solution, blood was washed away from the heart, and the coronary artery was re-occluded. After the reocclusion, 0.4 ml of 0.1% Evans blue was injected through the aorta. The heart was rinsed with physiological saline and was then cut into about 1 mm slices. For each slice, the left ventricle (LV) was separated, and the weight of the left ventricle and the weight of the area-at-risk (AR) were measured. The area-at-risk was stained with a 50 mM Tris.HCl (pH 7.4, 37° C.) buffer containing 1.5% triphenyltetrazolium chloride heated at 37° C., and the weight of the infarct area (IS; infarct size) was measured. The measurement of the weight was carried out under a blind."}, "[6]": {"test_system": "rat peritoneal cavity macrophage", "quoted_text": "A Dulbecco's phosphate buffer (PBS (−)) solution of rat serum-derived vitronectin adjusted to a concentration of 5 μg/ml was first added to wells (50 μl/well) of a microplate (Maxisorp), and a reaction for immobilization was allowed to proceed at 4° C. overnight. After washing twice with 150 μl of PBS (−), PBS (−) containing 10 mg/ml of bovine serum albumin was added, followed by blocking at 37° C. for one hr. The microplate was then washed twice with 150 μl of PBS (−) to prepare an assay plate.\nRat peritoneal cavity macrophage was collected after the induction of thioglycolate into the peritoneal cavity. Specifically, a 3% thioglycolate medium was intraperitoneally administered into Wistar male rats (300 to 400 g) at a dose of 100 ml/kg, and, four days after the administration, intraperitoneal fluid and cold PBS (−) (100 ml/kg) injected into the peritoneal cavity were withdrawn to collect macrophage. The macrophage was isolated by removing nonadherent cells. Specifically, the cells collected from the peritoneal cavity were washed twice with PBS (−) and were then cultivated in a Dulbecco's modified Eagle's basal medium containing 0.1% bovine serum albumin under 5% carbon dioxide for 30 min to perform adhesion of macrophage. Next, nonadherent cells were removed, followed by washing with PBS (−). Thereafter, macrophage was collected with a cell scraper. The collected rat macrophage was washed twice with PBS (−) and was then suspended in a Dulbecco's modified Eagle's basal medium to a concentration of 8×10^5/ml. Next, 50 μl of a Dulbecco's modified Eagle's basal medium containing 0.2% bovine serum albumin with a medicament added thereto was added to the wells of the vitronectin-coated assay microplate, followed by pre-cultivation under 5% carbon dioxide at 37° C. for 10 min. Thereafter, 50 μl of the Dulbecco's modified Eagle's basal medium with macrophage suspended therein was added thereto, and the plate was thoroughly stirred. A reaction was allowed to proceed under 5% carbon dioxide at 37° C. for 10 min. […] The absorbance of the microplate thus obtained was measured at 595 nm."}},
  "note": "pIC50: −log10 of the molar value. Where two headings read alike, the source gives them in different places.",
  "data": [
    {"smiles": "O=C(NCC(NS(=O)(=O)c1ccccc1)C(=O)O)c1ccc(N2CCC(NC3=NCCCN3)CC2)c(F)c1", "note": "(stereo in doubt) [formula (IV), (2S)-Benzenesulfonylamino-3-[3-fluoro-4-{4-(1,4,5,6-tetrahydropyrimidin-2-ylamino)-piperidin-1-yl}benzoylamino]propionic Acid]", "values": [
      {"measurement": "pIC50", "setting": "integrin αvβ3", "result": 9.70},
      {"measurement": "pIC50", "setting": "[1]", "result": 7.43},
      {"measurement": "pIC50", "setting": "[2]", "result": 7.59},
      {"measurement": "pIC50", "setting": "platelet aggregation [3]", "result": 7.26},
      {"measurement": "pIC50", "setting": "platelet aggregation [4]", "result": 5.72},
      {"measurement": "reduction of myocardial infarct size (IS/AR)", "setting": "[5]; group H 1.0 mg/kg+1.0 mg/kg/h (bolus+infusion), significant difference", "result": 49.3, "unit": "%"},
      {"measurement": "myocardial infarct size (IS/AR)", "setting": "[5]; group H 1.0 mg/kg+1.0 mg/kg/h", "result": "25.0±2.8", "unit": "%"},
      {"measurement": "reduction of myocardial infarct size (IS/AR)", "setting": "[5]; group L 0.33 mg/kg+0.33 mg/kg/h (bolus+infusion)", "result": 30.9, "unit": "%"},
      {"measurement": "myocardial infarct size (IS/AR)", "setting": "[5]; group L 0.33 mg/kg+0.33 mg/kg/h", "result": "34.0±5.0", "unit": "%"},
      {"measurement": "fluorescence intensity (adhered rat macrophage)", "setting": "[6]; 0.1 µM", "result": "0.086±0.069", "unit": "arbitrary unit"},
      {"measurement": "fluorescence intensity (adhered rat macrophage)", "setting": "[6]; 1 µM", "result": "0.031 +0.037 arbitrary unit"},
      {"measurement": "fluorescence intensity (adhered rat macrophage)", "setting": "[6]; 10 µM", "result": "0.012 +0.038 arbitrary unit"}
    ]}
  ]
}
